According to patent publication US20240287071A1, “CLASS OF IMIDAZOLIDINOPYRIMIDONE COMPOUNDS AND USE THEREOF IN TREATMENT OF HSCLPP-MEDIATED DISEASES” (SICHUAN UNIVERSITY, priority 2021, published 2024):

Biological target: HsClpP (Homo sapiens, UniProt Q16740)
Assay: HsClpP enzyme hydrolysis of short peptide substrate AC-WLA-AMC
Details: promoting hydrolysis of short peptide substrate by HsClpP, relative to blank control
Description: This study evaluated the regulatory activity of the compounds on HsClpP by examining the hydrolysis effects of HsClpP protein on the AC-WLA-AMC substrate . […] The small molecules and the HsClpP protein solution were added to a flat-bottomed black 96-well plate, with three replicate wells for each group. […] DMSO was used as a negative control instead of small molecules. The multiple of readings at different concentrations against the readings of DMSO group was recorded as an index for evaluation of hydrolysis activity. . . . GraphPad Prism was used to plot the obtained multiple values and calculate the EC50 values.

Chain of HsClpP (Q16740 57-277): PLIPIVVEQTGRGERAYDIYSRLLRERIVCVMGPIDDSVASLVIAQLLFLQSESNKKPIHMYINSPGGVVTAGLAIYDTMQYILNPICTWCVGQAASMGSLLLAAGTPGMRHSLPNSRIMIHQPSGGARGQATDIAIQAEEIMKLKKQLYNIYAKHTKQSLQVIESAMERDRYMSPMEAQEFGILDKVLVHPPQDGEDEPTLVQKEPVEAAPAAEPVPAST

Row | SMILES | Regulatory efficacy 1 μM | Regulatory efficacy 10 μM
1 | O=c1nc2n(c3c1CN(Cc1ccccc1)CC3(F)F)CCN2CC1CCCCC1 [Compound 66, 7-Benzyl-3-(cyclohexylmethyl)-9,9-difluoro-2,3,6,7,8,9-hexahydroimidazo[1,2-a]pyrido[3,4-e]pyri midin-5(1H)-one] | + + | + +
2 | O=c1nc2n(c3c1CN(Cc1ccccc1)CC3(F)F)CCN2c1ccccc1 [Compound 67, 7-Benzyl-9,9-difluoro-3-phenyl-2,3,6,7,8,9-hexahydroimidazo[1,2-a]pyrido[3,4-e]pyrimidin-5(1H)-one] | + + | + +
3 | CCN1CCn2c1nc(=O)c1c2C(F)(F)CN(Cc2ccccc2)C1 [Compound 65, 7-Benzyl-3-ethyl-9,9-difluoro-2,3,6,7,8,9-hexahydroimidazo[1,2-a]pyrido[3,4-e]pyrimidin-5(1H)-one] | + (+ indicating that the increased efficacy is less than 50% of the blank control group) | + +
4 | O=c1nc2n(c3c1CN(Cc1ccccc1)CC3)CCN2Cc1ccco1 [Compound 25, 7-benzyl-3-(2-furfuryl)-2,3,6,7,8,9-hexahydroimidazo[1,2-a]pyrido[3,4-e]pyrimidin-5(1H)-one] | + (+ indicating that the increased efficacy is less than 50% of the blank control group) | + +
5 | CCN1CCn2c1nc(=O)c1c2CCN(Cc2ccccc2)C1 [Compound 3, 7-benzyl-3-ethyl-2,3,6,7,8,9-hexahydroimidazo[1,2-a]pyrido[3,4-e]pyrimidin-5(1H)-one] | + (+ indicating that the increased efficacy is less than 50% of the blank control group) | + (+ indicating that the increased efficacy is less than 50% of the blank control group)
6 | O=c1nc2n(c3c1CN(Cc1ccccc1)CC3)CCN2Cc1ccccc1F [Compound 62, 7-Benzyl-3-(2-fluorobenzyl)-2,3,6,7,8,9-hexahydroimidazo[1,2-a]pyrido[3,4-e]pyrimidin-5(1H)-one] | + + | + +
7 | O=c1nc2n(c3c1CN(Cc1ccccc1)CC3)CCN2Cc1ccncc1 [Compound 24, 7-benzyl-3-(4-pyridinylmethyl)-2,3,6,7,8,9-hexahydroimidazo[1,2-a]pyrido[3,4-e]pyrimidin-5(1H)-one] | + (+ indicating that the increased efficacy is less than 50% of the blank control group) | + +
8 | O=c1nc2n(c3c1CN(Cc1ccccc1)CC3)CCN2Cc1cccnc1 [Compound 23, 7-benzyl-3-(3-pyridinylmethyl)-2,3,6,7,8,9-hexahydroimidazo[1,2-a]pyrido[3,4-e]pyrimidin-5(1H)-one] | + (+ indicating that the increased efficacy is less than 50% of the blank control group) | + +
9 | Cc1ccccc1CN1CCn2c1nc(=O)c1c2CCN(Cc2ccc(F)c(F)c2)C1 [Compound 36, 7-(3,4-difluorobenzyl)-3-(2-methylbenzyl)-2,3,6,7,8,9-hexahydroimidazo[1,2-a]pyrido[3,4-e]pyrimidin-5(1H)-one] | + + | + +
10 | O=c1nc2n(c3c1CN(Cc1ccccc1)CC3(F)F)CCN2Cc1ccco1 [Compound 70, 7-Benzyl-9,9-difluoro-3-(furan-2-ylmethyl)-2,3,6,7,8,9-hexahydroimidazo [1,2-a]pyrido[3,4-e]pyrimidin-5(1H)-one] | + (+ indicating that the increased efficacy is less than 50% of the blank control group) | + +
11 | Cc1ccccc1CN1CCn2c1nc(=O)c1c2CCN(CCc2ccccc2)C1 [Compound 42, 3-(2-methylbenzyl)-7-phenethyl-2,3,6,7,8,9-hexahydroimidazo[1,2-a]pyrido[3,4-e]pyrimidin-5(1H)-one] | + (+ indicating that the increased efficacy is less than 50% of the blank control group) | + +
12 | O=c1nc2n(c3c1CN(Cc1ccccc1)CC3(F)F)CCN2Cc1ccc(F)c(F)c1 [Compound 80, 7-Benzyl-3-(3,4-difluorobenzyl)-9,9-difluoro-2,3,6,7,8,9-hexahydroimidazo[1,2-a]pyrido[3,4-e]pyrimidin-5(1H)-one] | + + | + +
13 | O=c1nc2n(c3c1CN(Cc1ccccc1)CC3)CCN2CCc1ccccc1 [Compound 10, 7-benzyl-3-(phenylethyl)-2,3,6,7,8,9-hexahydroimidazo[1,2-a]pyrido[3,4-e]pyrimidin-5(1H)-one] | + + | + +
14 | Cc1ccc(CN2CCn3c2nc(=O)c2c3C(F)(F)CN(Cc3cccc(C#N)c3)C2)cc1 [Compound 56, 3-((9,9-difluoro-3-(4-methylbenzyl)-5-oxo-2,3,6,7,8,9-hexahydroimidazo[1,2-a]pyrido[3,4-e]pyrimidin-7(6H)-yl)methyl)benzonitrile] | + + | + +
15 | N#Cc1cccc(CN2Cc3c(n4c(nc3=O)N(Cc3ccc(F)c(F)c3)CC4)C(F)(F)C2)c1 [Compound 50, 3-((3-(3,4-difluorobenzyl)-9,9-difluoro-5-oxo-2,3,6,7,8,9-hexahydroimidazo[1,2-a]pyrido[3,4-e]pyrimidin-7(6H)-yl)methyl)benzonitrile] | + + | + +
16 | Cc1ccccc1CN1CCn2c1nc(=O)c1c2CCN(Cc2ccc(F)cc2)C1 [Compound 38, 7-(4-fluorobenzyl)-3-(2-methylbenzyl)-2,3,6,7,8,9-hexahydroimidazo[1,2-a]pyrido[3,4-e]pyrimidin-5(1H)-one] | + + | + +

Other lines, results leading:

Row | Regulatory efficacy 1 μM | Regulatory efficacy 10 μM | SMILES
17 | + + | + + | COc1cccc(CN2CCn3c2nc(=O)c2c3CCN(Cc3ccccc3)C2)c1 [Compound 64, 7-Benzyl-3-(3-methoxybenzyl)-2,3,6,7,8,9-hexahydroimidazo[1,2-a]pyrido[3,4-e]pyrimidin-5(1H)-one]
18 | + + | + + | O=c1nc2n(c3c1CN(Cc1ccccc1)CC3(F)F)CCN2CCc1ccccc1 [Compound 69, 7-Benzyl-9,9-difluoro-3-phenylethyl-2,3,6,7,8,9-hexahydroimidazo[1,2-a]pyrido[3,4-e]pyrimidin-5(1H)-one]
19 | + + | + + | Cc1ccccc1CN1CCn2c1nc(=O)c1c2C(F)(F)CN(Cc2ccccc2)C1 [Compound 47, 7-Benzyl-9,9-difluoro-3-(2-methylbenzyl)-2,3,6,7,8,9-hexahydroimidazo[1,2-a]pyrido[3,4-e]pyrimid in-5(1H)-one]
20 | + + | + + | CC(C)CCN1CCn2c1nc(=O)c1c2CCN(Cc2ccccc2)C1 [Compound 4, 7-benzyl-3-isopentyl-2,3,6,7,8,9-hexahydroimidazo[1,2-a]pyrido[3,4-e]pyrimidin-5(1H)-one]
21 | + + | + + | Cc1cccc(CN2CCn3c2nc(=O)c2c3C(F)(F)CN(Cc3ccccc3)C2)c1 [Compound 48, 7-Benzyl-9,9-difluoro-3-(3-methylbenzyl)-2,3,6,7,8,9-hexahydroimidazo[1,2-a]pyrido[3,4-e]pyrimid in-5(1H)-one]
